Measured values taken from US10532995B2, “Substituted pyrazole compounds as serine protease inhibitors” (VERSEON CORPORATION, priority 2015, dated 2020).
pIC50: −log10 of the molar value.

target: T1, Human thrombin (Homo sapiens, UniProt P00734); test: Thrombin protease activity inhibition, chromogenic substrate S-2238; format: biochemical; details: 3 nM thrombin, 125 μM S-2238, 10 min pre-incubation, RT
T1 construct: purchased Haematologic Technologies Inc
In short: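 Thrombin at 3 nM final in 0.05 M Tris pH 7.4, 0.015 M NaCl, 0.01% PEG-8000, at room temperature; compounds as ten-point three-fold dilutions.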

SMILES | pIC50
C=CCOC(=O)N1CCN(C(=O)N2CCOCC2)CC1c1cc(NCc2ccc(Cl)s2)[nH]n1 (stereo not drawn) [Entry 249, prop-2-en-1-yl 2-(5-[(5-chlorothiophen-2-yl)methyl]amino-1H-pyrazol-3-yl)-4-(morpholine-4-carbonyl)piperazine-1-carboxylate] | < 4.00
C=CCOC(=O)N1CCN(S(=O)(=O)N2CCOCC2)CC1c1cc(NCc2ccc(Cl)s2)[nH]n1 (stereo not drawn) [Entry 250, prop-2-en-1-yl 2-(5-[(5-chlorothiophen-2-yl)methyl]amino-1H-pyrazol-3-yl)-4-(morpholine-4-sulfonyl)piperazine-1-carboxylate] | < 4.00
C=CCOC(=O)N1CCN(C(=O)CN2CCOCC2)CC1c1cc(NCc2ccc(Cl)s2)[nH]n1 (stereo not drawn) [Entry 251, prop-2-en-1-yl 2-(5-[(5-chlorothiophen-2-yl)methyl]amino-1H-pyrazol-3-yl)-4-[2-(morpholin-4-yl)acetyl]piperazine-1-carboxylate] | < 4.00
C=CCOC(=O)N1CCN(S(C)(=O)=O)CC1c1cc(NCc2ccc(Cl)s2)[nH]n1 (stereo not drawn) [Entry 252, prop-2-en-1-yl 2-(5-[(5-chlorothiophen-2-yl)methyl]amino-1H-pyrazol-3-yl)-4-methanesulfonylpiperazine-1-carboxylate] | < 4.00
C=CCOC(=O)N1CCCC1c1cc(NCc2ccc(Cl)s2)[nH]n1 (stereo not drawn) [Entry 253, prop-2-en-1-yl 2-(5-[(5-chlorothiophen-2-yl)methyl]amino-1H-pyrazol-3-yl)pyrrolidine-1-carboxylate] | < 4.00
C=CCOC(=O)N1C2CCC1CC(c1cc(NCc3ccc(Cl)s3)[nH]n1)C2 (stereo not drawn) [Entry 257, prop-2-en-1-yl 3-(5-[(5-chlorothiophen-2-yl)methyl]amino-1H-pyrazol-3-yl)-8-azabicyclo[3.2.1]octane-8-carboxylate] | 4.00 to 5.00
C=CCOC(=O)N1CC(c2cc(NCc3ccc(Cl)s3)[nH]n2)C1 [Entry 258, prop-2-en-1-yl 3-(5-[(5-chlorothiophen-2-yl)methyl]amino-1H-pyrazol-3-yl)azetidine-1-carboxylate] | 4.00 to 5.00
C=CCOC(=O)N1CCC(c2cc(NCc3ccc(Cl)s3)[nH]n2)C1 (stereo not drawn) [Entry 259, prop-2-en-1-yl 3-(5-[(5-chlorothiophen-2-yl)methyl]amino-1H-pyrazol-3-yl)pyrrolidine-1-carboxylate] | < 4.00
C=CCOC(=O)N1CCC(c2n[nH]c(NCc3ccc(Cl)s3)c2C#N)CC1 [Entry 268, prop-2-en-1-yl 4-(5-[(5-chlorothiophen-2-yl)methyl]amino-4-cyano-1H-pyrazol-3-yl)piperidine-1-carboxylate] | 5.00 to 6.00
C=CCOC(=O)N1CCC(c2nn(C(=O)c3cscn3)c(NCc3ccc(Cl)s3)c2C)CC1 [Entry 270, prop-2-en-1-yl 4-(5-[(5-chlorothiophen-2-yl)methyl]amino-4-methyl-1-(1,3-thiazole-4-carbonyl)-1H-pyrazol-3-yl)piperidine-1-carboxylate] | > 7.00
COc1ccccc1C(=O)n1nc(C2(C)CCCN2C(=O)OC(C)(C)C)cc1NCc1ccc(Cl)s1 (stereo not drawn) [Entry 272, tert-butyl 2-(5-[(5-chlorothiophen-2-yl)methyl]amino-1-(2-methoxybenzoyl)-1H-pyrazol-3-yl)-2-methylpyrrolidine-1-carboxylate] | 5.00 to 6.00

Further lines, results first:

pIC50 | SMILES
> 7.00 | C=CCOC(=O)N1C2CCC1CC(c1cc(NCc3ccc(Cl)s3)n(C(=O)C(C)(C)C)n1)C2 (stereo not drawn) [Entry 254, prop-2-en-1-yl 3-(5-[(5-chlorothiophen-2-yl)methyl]amino-1-(2,2-dimethylpropanoyl)-1H-pyrazol-3-yl)-8-azabicyclo[3.2.1]octane-8-carboxylate]
> 7.00 | C=CCOC(=O)N1CC(c2cc(NCc3ccc(Cl)s3)n(C(=O)C(C)(C)C)n2)C1 [Entry 255, prop-2-en-1-yl 3-(5-[(5-chlorothiophen-2-yl)methyl]amino-1-(2,2-dimethylpropanoyl)-1H-pyrazol-3-yl)azetidine-1-carboxylate]
> 7.00 | C=CCOC(=O)N1CCC(c2cc(NCc3ccc(Cl)s3)n(C(=O)C(C)(C)C)n2)C1 (stereo not drawn) [Entry 256, prop-2-en-1-yl 3-(5-[(5-chlorothiophen-2-yl)methyl]amino-1-(2,2-dimethylpropanoyl)-1H-pyrazol-3-yl)pyrrolidine-1-carboxylate]
> 7.00 | C=CCOC(=O)N1CCCC(c2cc(NCc3ccc(Cl)s3)n(C(=O)c3cscn3)n2)CC1 (stereo not drawn) [Entry 260, prop-2-en-1-yl 4-(5-[(5-chlorothiophen-2-yl)methyl]amino-1-(1,3-thiazole-4-carbonyl)-1H-pyrazol-3-yl)azepane-1-carboxylate]
> 7.00 | C=CCOC(=O)N1CCCC(c2cc(NCc3ccc(Cl)s3)n(C(=O)C(C)(C)C)n2)CC1 (stereo not drawn) [Entry 261, prop-2-en-1-yl 4-(5-[(5-chlorothiophen-2-yl)methyl]amino-1-(2,2-dimethylpropanoyl)-1H-pyrazol-3-yl)azepane-1-carboxylate]
> 7.00 | C=CCOC(=O)N1CCC(c2cc(NCc3ccc(Cl)s3)n(C(=O)C(C)(C)C)n2)CC1 [Entry 262, prop-2-en-1-yl 4-(5-[(5-chlorothiophen-2-yl)methyl]amino-1-(2,2-dimethylpropanoyl)-1H-pyrazol-3-yl)piperidine-1-carboxylate]
> 7.00 | C=CCOC(=O)N1CCC(c2nn(C(=O)C(C)(C)C)c(NCc3ccc(Cl)s3)c2F)CC1 [Entry 263, prop-2-en-1-yl 4-(5-[(5-chlorothiophen-2-yl)methyl]amino-1-(2,2-dimethylpropanoyl)-4-fluoro-1H-pyrazol-3-yl)piperidine-1-carboxylate]
> 7.00 | C=CCOC(=O)N1CCC(c2nn(C(=O)C(C)(C)C)c(NCc3ccc(Cl)s3)c2C)CC1 [Entry 264, prop-2-en-1-yl 4-(5-[(5-chlorothiophen-2-yl)methyl]amino-1-(2,2-dimethylpropanoyl)-4-methyl-1H-pyrazol-3-yl)piperidine-1-carboxylate]
< 4.00 | C=CCOC(=O)N1CCCC(c2cc(NCc3ccc(Cl)s3)[nH]n2)CC1 (stereo not drawn) [Entry 265, prop-2-en-1-yl 4-(5-[(5-chlorothiophen-2-yl)methyl]amino-1H-pyrazol-3-yl)azepane-1-carboxylate]
< 4.00 | C=CCOC(=O)N1CCC(c2cc(NCc3ccc(Cl)s3)[nH]n2)CC1 [Entry 266, prop-2-en-1-yl 4-(5-[(5-chlorothiophen-2-yl)methyl]amino-1H-pyrazol-3-yl)piperidine-1-carboxylate]
> 7.00 | C=CCOC(=O)N1CCC(c2nn(C(=O)C(C)(C)C)c(NCc3ccc(Cl)s3)c2C#N)CC1 [Entry 267, prop-2-en-1-yl 4-(5-[(5-chlorothiophen-2-yl)methyl]amino-4-cyano-1-(2,2-dimethylpropanoyl)-1H-pyrazol-3-yl)piperidine-1-carboxylate]
< 4.00 | C=CCOC(=O)N1CCC(c2n[nH]c(NCc3ccc(Cl)s3)c2F)CC1 [Entry 269, prop-2-en-1-yl 4-(5-[(5-chlorothiophen-2-yl)methyl]amino-4-fluoro-1H-pyrazol-3-yl)piperidine-1-carboxylate]
< 4.00 | C=CCOC(=O)N1CCC(c2n[nH]c(NCc3ccc(Cl)s3)c2C)CC1 [Entry 271, prop-2-en-1-yl 4-(5-[(5-chlorothiophen-2-yl)methyl]amino-4-methyl-1H-pyrazol-3-yl)piperidine-1-carboxylate]
